Measured values reported in paper PMC3723632, “A Multi-targeted Drug Candidate with Dual Anti-HIV and Anti-HSV Activity” (PLoS Pathogens, 2013).
Read-outs that look alike come from different tables or passages of the source.

Key:
HIV-1 RT = biological target: T1, HIV-1 RT (Human immunodeficiency virus type 1 group M subtype B, UniProt P03366); assay: HIV-1 reverse transcriptase assay; assay type: biochemical; conditions: poly rU.dA primer/template
T1 construct: 4 µl of recombinant HIV-1 RT
Method: […] In the HSV DNA polymerase assays, the inhibitory effect of adefovir-pp or PMEA-DAPym-pp on herpesvirus DNA polymerase-catalyzed polymerization was also determined in the presence of radiolabeled [^3H]dGTP (1 mCi/ml; 2.8 µM), [^3H]dTTP (1 mCi/ml; 1 µM), or [^3H]dCTP (1 mCi/ml; 2.5 µM) as competing dNTP in the presence of 0.8 µl (5 mM) of the other dNTPs in the reaction mixture as described above. The reaction was started by the addition of 4 µl of recombinant HSV-1 DNA polymerase (kindly provided by M.W. Wathen, at that time at Pfizer, Kalamazoo, MI) or 4 µl of recombinant HIV-1 RT (in 20 mM Tris.HCl, pH 8.0; 1 mM DTT; 0.1 mM EDTA; 0.2 M NaCl; 40% glycerol), and the reaction mixture was incubated for 60 min (HSV-1 DNA polymerase) or 30 min (HIV-1 RT) at 37°C. Then, 1 ml of ice-cold 5% TCA in 0.02 M Na4P2O7.10 H2O was added to terminate the polymerisation reaction, after which the acid-insoluble precipitate (radiolabeled DNA) was captured onto Whatman glass fiber filters (type GF/C; GE Healthcare UK Limited, Buckinghamshire, UK) and further washed with 5% TCA and ethanol to remove free radiolabeled dNTP. Radioactivity was determined in a Perkin Elmer Tri-Carb 2810 TR liquid scintillation counter.

HSV DNA polymerase = biological target: T2, HSV DNA polymerase (Human herpesvirus 1, UniProt P04293); assay: HSV DNA polymerase assay; assay type: biochemical
T2 construct: gift of M.W. Wathen (Pfizer, Kalamazoo, MI)
T2 sequence (P04293 whole entry): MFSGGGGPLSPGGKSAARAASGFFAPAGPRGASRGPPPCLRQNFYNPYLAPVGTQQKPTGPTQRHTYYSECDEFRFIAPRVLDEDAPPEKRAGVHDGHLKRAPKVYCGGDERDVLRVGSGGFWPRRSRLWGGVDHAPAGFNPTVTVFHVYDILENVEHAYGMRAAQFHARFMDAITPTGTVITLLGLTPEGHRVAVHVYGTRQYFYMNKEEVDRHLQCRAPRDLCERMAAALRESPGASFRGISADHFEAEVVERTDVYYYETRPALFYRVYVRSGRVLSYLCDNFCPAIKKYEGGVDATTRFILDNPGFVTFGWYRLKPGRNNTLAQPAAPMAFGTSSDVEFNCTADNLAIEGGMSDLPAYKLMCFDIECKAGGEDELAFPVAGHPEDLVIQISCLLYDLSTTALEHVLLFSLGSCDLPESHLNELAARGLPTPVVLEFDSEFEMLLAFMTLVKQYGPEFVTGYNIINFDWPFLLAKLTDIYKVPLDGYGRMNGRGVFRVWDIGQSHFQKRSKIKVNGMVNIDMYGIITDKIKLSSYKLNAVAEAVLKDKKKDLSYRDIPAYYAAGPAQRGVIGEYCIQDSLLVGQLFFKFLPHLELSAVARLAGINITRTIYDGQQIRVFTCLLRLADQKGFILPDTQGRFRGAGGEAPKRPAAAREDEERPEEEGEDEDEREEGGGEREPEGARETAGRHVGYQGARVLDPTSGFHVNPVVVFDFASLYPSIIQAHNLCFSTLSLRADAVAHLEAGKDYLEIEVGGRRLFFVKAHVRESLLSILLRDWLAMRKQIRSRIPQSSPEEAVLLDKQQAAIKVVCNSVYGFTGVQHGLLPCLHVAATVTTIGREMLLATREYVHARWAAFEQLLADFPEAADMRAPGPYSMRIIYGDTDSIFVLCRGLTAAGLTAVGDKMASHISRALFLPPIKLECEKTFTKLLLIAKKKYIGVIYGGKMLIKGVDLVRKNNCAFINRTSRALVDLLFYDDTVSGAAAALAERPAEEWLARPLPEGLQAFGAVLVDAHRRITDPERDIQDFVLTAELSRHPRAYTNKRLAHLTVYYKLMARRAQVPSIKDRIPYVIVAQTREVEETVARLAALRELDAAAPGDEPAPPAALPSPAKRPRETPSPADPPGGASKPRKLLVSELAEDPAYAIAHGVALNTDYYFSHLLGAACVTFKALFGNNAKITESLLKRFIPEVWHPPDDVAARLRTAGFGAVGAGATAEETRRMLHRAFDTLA
Method: The reaction mixture (40 µl) for the HSV-1 DNA polymerase and HIV-1 RT assays contained 4 µl of Premix (200 mM Tris.HCl, pH 7.5; 2 mM DTT; 30 mM MgCl2), 4 µl of BSA (5 mg/ml), 1.6 µl of activated calf thymus DNA (1.25 mg/ml), 0.8 µl of dCTP (5 mM), 0.8 µl of dTTP (5 mM), 0.8 µl of dGTP (5 mM), 2 µl of radiolabeled [^3H]dATP (1 mCi/ml) (3.2 µM), 18 µl of H2O, and 4 µl of adefovir-pp or PMEO-DAPym-pp at different concentrations (i.e., 200, 20, 2, and 0.2 µM). In the HSV DNA polymerase assays, the inhibitory effect of adefovir-pp or PMEA-DAPym-pp on herpesvirus DNA polymerase-catalyzed polymerization was also determined in the presence of radiolabeled [^3H]dGTP (1 mCi/ml; 2.8 µM), [^3H]dTTP (1 mCi/ml; 1 µM), or [^3H]dCTP (1 mCi/ml; 2.5 µM) as competing dNTP in the presence of 0.8 µl (5 mM) of the other dNTPs in the reaction mixture as described above. The reaction was started by the addition of 4 µl of recombinant HSV-1 DNA polymerase (kindly provided by M.W. Wathen, at that time at Pfizer, Kalamazoo, MI) or 4 µl of recombinant HIV-1 RT (in 20 mM Tris.HCl, pH 8.0; 1 mM DTT; 0.1 mM EDTA; 0.2 M NaCl; 40% glycerol), and the reaction mixture was incubated for 60 min (HSV-1 DNA polymerase) or 30 min (HIV-1 RT) at 37°C. Then, 1 ml of ice-cold 5% TCA in 0.02 M Na4P2O7.10 H2O was added to terminate the polymerisation reaction, after which the acid-insoluble precipitate (radiolabeled DNA) was captured onto Whatman glass fiber filters (type GF/C; GE Healthcare UK Limited, Buckinghamshire, UK) and further washed with 5% TCA and ethanol to remove free radiolabeled dNTP. Radioactivity was determined in a Perkin Elmer Tri-Carb 2810 TR liquid scintillation counter.

| SMILES | IC50 (HIV-1 RT; dATP (3.2 µM) as competing substrate) [µg/mL] | IC50 (HSV DNA polymerase; [3H]dATP as competing substrate, gapped calf thymus DNA) [µg/mL] | IC50 (HSV DNA polymerase; [3H]dCTP as competing substrate, gapped calf thymus DNA) [µg/mL] | IC50 (HSV DNA polymerase; [3H]dGTP as competing substrate, gapped calf thymus DNA) [µg/mL] | IC50 (HSV DNA polymerase; [3H]dTTP as competing substrate, gapped calf thymus DNA) [µg/mL] | IC50, incorporation of other [3H]dNTPs (HSV DNA polymerase; dCTP, dGTP, dTTP, range) [µg/mL] | IC50 (HIV-1 RT; IC50, dATP (3.2 µM) as competing substrate) [µM] | IC50 (HSV DNA polymerase; [3H]dATP as competing substrate, gapped calf thymus DNA, read-out: IC50 (converted)) [µM] | IC50 (HSV DNA polymerase; [3H]dCTP as competing substrate, gapped calf thymus DNA, read-out: IC50 (converted)) [µM] | IC50 (HSV DNA polymerase; [3H]dGTP as competing substrate, gapped calf thymus DNA, read-out: IC50 (converted)) [µM] | IC50 (HSV DNA polymerase; [3H]dTTP as competing substrate, gapped calf thymus DNA, read-out: IC50 (converted)) [µM] | IC50 (HSV DNA polymerase; dCTP, dGTP, dTTP, range, read-out: IC50, incorporation of other [3H]dNTPs) [µM] |
| --- | --- | --- | --- | --- | --- | --- | --- | --- | --- | --- | --- | --- |
| C[C@@H](Cn1cnc2c(N)ncnc21)OCP(=O)(O)OP(=O)(O)OP(=O)(O)O [Tenofovir-pp] | 0.43 ± 0.21 | 0.48 ± 0.04 | 32 ± 2.2 | 8.9 ± 6.3 | 11 ± 4.8 | 8.9 to 32 |  |  |  |  |  |  |
| Nc1ncnc2c1ncn2CCOCP(=O)(O)OP(=O)(O)OP(=O)(O)O [Adefovir-pp] |  |  |  |  |  |  | 0.923 | 0.993 | 3.92 | 3.46 | 4.85 | 3.46 to 4.85 |
